How the values were obtained:
Experiment in all cases: radiometric filter-binding kinase assay
[1] = test system: AKT1 (human), P31749 [S473D]; conditions: compound 10.0 µM; ATP 5 µM
AURKB (human) = AURKB (human) (UniProt Q96GD4); conditions: ATP 20 µM
BRSK2 (human) = BRSK2 (human) (UniProt Q8IWQ3); conditions: compound 1.0 µM; ATP 50 µM
CAMKK2 (human) = CAMKK2 (human) (UniProt Q96RR4); conditions: compound 10.0 µM; ATP 20 µM
CHEK2 (human) = CHEK2 (human) (UniProt O96017); conditions: compound 10.0 µM; ATP 20 µM
CSK (human) = CSK (human) (UniProt P41240); conditions: compound 1.0 µM; ATP 20 µM
CaMK1 (human) = CaMK1 (human) (UniProt Q14012); conditions: ATP 50 µM
DYRK2 (human) = DYRK2 (human) (UniProt Q92630); conditions: ATP 50 µM
DYRK3 (human) = DYRK3 (human) (UniProt O43781); conditions: ATP 5 µM
EEF2K (human) = EEF2K (human) (UniProt O00418); conditions: ATP 5 µM
GSK3B (human) = GSK3B (human) (UniProt P49841); conditions: ATP 5 µM
HIPK2 (human) = HIPK2 (human) (UniProt Q9H2X6); conditions: ATP 5 µM
HIPK3 (human) = HIPK3 (human) (UniProt Q9H422); conditions: ATP 20 µM
IKBKB (human) = IKBKB (human) (UniProt O14920); conditions: compound 10.0 µM; ATP 5 µM
MAP2K1 (human) = MAP2K1 (human) (UniProt Q02750); conditions: compound 1.0 µM; ATP 5 µM
MAPK10 (human) = MAPK10 (human) (UniProt P53779); conditions: ATP 50 µM
MAPK15 (human) = MAPK15 (human) (UniProt Q8TD08); conditions: compound 10.0 µM; ATP 5 µM
MAPK3 (human) = MAPK3 (human) (UniProt P27361); conditions: ATP 5 µM
MAPKAPK2 (human) = MAPKAPK2 (human) (UniProt P49137); conditions: ATP 20 µM
NEK2 (human) = NEK2 (human) (UniProt P51955); conditions: ATP 50 µM
PAK6 (human) = PAK6 (human) (UniProt Q9NQU5); conditions: ATP 20 µM
PDPK1 (human) = PDPK1 (human) (UniProt O15530)
PIM1 (human) = PIM1 (human) (UniProt P11309); conditions: ATP 20 µM
PIM3 (human) = PIM3 (human) (UniProt Q86V86); conditions: compound 10.0 µM; ATP 20 µM
PLK1 (human) = PLK1 (human) (UniProt P53350); conditions: ATP 5 µM
[2] = biological target: PRKACA or PRKACB or PRKACG (human) (UniProt P22694+P22612+P17612); conditions: ATP 20 µM
PRKCA (human) = PRKCA (human) (UniProt P17252); conditions: ATP 20 µM
RPS6KA1 KD1 KD2 (human) = RPS6KA1 KD1 KD2 (human) (UniProt Q15418); conditions: ATP 50 µM
[3] = test system: SGK1 (human), O00141 [S422D]; conditions: compound 10.0 µM; ATP 20 µM
SRC (chicken) = conditions: compound 10.0 µM; ATP 50 µM; accession and sequence are those of the human protein
STK3 (human) = STK3 (human) (UniProt Q13188); conditions: compound 10.0 µM; ATP 20 µM
AKT2 (human) = AKT2 (human) (UniProt P31751); conditions: compound 10.0 µM; ATP 50 µM
[4] = biological target: CSNK2A1 or CSNK2A2 (human) (UniProt P19784+P68400); conditions: compound 10.0 µM; ATP 5 µM
MAPK1 (human) = MAPK1 (human) (UniProt P28482); conditions: compound 10.0 µM; ATP 50 µM
MAPK12 (human) = MAPK12 (human) (UniProt P53778); conditions: compound 10.0 µM; ATP 5 µM
MAPK14 (human) = MAPK14 (human) (UniProt Q16539); conditions: compound 10.0 µM; ATP 50 µM
MAPK8 (human) = MAPK8 (human) (UniProt P45983); conditions: compound 10.0 µM; ATP 20 µM
PKN2 (human) = PKN2 (human) (UniProt Q16513); conditions: compound 10.0 µM; ATP 5 µM

Chain of AURKB (human) (Q96GD4 whole entry, looked up): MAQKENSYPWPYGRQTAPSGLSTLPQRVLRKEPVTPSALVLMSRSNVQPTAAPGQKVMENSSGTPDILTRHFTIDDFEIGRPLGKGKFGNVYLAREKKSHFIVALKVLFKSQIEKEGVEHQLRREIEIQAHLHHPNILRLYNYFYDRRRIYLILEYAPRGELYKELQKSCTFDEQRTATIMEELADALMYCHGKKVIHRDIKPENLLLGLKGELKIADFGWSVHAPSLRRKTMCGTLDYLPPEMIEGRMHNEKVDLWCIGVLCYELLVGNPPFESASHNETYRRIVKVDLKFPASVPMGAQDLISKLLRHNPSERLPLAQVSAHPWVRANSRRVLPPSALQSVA
Chain of DYRK3 (human) (O43781 whole entry, looked up): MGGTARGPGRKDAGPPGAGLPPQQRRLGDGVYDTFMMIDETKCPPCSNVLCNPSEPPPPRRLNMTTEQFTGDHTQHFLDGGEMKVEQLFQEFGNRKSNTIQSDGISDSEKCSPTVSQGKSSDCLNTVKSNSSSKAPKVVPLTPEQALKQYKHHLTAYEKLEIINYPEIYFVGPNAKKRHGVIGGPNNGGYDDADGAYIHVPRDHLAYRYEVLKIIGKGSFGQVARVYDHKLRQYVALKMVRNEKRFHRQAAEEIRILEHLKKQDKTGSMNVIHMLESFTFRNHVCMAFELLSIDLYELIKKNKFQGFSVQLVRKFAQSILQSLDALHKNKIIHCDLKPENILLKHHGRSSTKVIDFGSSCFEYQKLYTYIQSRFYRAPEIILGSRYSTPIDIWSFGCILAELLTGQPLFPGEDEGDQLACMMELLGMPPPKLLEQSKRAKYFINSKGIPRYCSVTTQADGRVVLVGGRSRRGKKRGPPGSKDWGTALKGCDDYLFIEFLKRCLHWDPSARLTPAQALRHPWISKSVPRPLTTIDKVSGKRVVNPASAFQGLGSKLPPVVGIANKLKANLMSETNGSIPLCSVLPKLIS
Chain of HIPK2 (human) (Q9H2X6 whole entry, looked up): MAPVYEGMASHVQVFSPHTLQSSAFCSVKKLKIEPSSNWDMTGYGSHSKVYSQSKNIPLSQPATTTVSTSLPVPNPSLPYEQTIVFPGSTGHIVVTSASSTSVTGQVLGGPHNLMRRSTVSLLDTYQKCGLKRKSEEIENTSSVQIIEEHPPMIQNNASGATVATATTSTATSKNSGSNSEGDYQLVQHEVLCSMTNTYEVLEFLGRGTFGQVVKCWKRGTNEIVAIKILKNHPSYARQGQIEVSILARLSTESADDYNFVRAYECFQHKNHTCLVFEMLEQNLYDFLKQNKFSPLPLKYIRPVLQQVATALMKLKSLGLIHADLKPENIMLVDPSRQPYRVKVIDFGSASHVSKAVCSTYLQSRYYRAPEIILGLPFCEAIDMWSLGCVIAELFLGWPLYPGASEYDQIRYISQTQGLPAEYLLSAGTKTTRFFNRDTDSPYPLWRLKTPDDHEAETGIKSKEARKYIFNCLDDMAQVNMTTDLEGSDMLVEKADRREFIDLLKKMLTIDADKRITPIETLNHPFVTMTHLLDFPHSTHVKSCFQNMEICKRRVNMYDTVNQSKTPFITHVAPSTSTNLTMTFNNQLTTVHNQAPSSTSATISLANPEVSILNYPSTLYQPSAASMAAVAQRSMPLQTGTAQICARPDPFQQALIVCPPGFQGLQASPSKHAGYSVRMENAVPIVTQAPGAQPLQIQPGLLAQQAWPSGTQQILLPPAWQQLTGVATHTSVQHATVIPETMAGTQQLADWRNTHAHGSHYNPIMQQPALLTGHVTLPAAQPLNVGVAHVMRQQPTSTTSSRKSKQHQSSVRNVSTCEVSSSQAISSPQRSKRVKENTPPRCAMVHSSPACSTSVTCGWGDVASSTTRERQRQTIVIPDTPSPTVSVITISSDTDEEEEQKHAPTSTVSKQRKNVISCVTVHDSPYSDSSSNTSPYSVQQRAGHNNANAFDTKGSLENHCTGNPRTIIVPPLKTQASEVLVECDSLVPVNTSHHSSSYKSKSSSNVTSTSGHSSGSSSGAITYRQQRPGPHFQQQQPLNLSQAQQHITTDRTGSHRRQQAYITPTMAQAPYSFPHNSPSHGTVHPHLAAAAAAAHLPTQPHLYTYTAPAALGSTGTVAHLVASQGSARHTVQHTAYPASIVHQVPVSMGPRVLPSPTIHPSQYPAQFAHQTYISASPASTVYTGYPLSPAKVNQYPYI
Chain of MAPK10 (human) (P53779 whole entry, looked up): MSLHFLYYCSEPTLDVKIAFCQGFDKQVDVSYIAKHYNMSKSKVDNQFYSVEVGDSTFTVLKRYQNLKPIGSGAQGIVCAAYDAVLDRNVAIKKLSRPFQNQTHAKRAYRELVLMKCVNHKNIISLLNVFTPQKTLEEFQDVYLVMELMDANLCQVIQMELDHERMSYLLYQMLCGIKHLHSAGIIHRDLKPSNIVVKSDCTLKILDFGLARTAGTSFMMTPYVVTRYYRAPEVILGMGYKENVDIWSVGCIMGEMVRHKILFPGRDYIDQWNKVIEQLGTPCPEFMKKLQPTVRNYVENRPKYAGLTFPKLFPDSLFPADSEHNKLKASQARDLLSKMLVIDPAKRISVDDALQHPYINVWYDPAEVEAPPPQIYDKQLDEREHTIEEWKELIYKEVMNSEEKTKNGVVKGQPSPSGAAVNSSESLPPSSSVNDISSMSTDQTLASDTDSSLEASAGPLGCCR
Chain of PDPK1 (human) (O15530 whole entry, looked up): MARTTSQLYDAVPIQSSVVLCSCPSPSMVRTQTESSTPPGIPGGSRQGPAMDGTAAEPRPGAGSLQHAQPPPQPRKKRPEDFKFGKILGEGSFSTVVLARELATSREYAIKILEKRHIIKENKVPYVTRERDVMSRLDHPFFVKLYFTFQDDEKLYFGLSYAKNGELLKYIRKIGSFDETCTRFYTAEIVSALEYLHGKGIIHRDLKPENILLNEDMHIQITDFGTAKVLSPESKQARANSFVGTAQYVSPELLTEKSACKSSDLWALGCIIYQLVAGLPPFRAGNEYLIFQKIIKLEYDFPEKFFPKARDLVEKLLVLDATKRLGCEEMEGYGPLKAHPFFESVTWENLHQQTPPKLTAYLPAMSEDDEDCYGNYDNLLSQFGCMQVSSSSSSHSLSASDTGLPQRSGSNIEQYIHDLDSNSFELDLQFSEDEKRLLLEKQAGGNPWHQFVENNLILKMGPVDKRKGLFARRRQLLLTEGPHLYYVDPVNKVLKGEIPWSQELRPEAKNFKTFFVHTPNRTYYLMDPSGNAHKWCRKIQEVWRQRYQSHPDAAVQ
Chain of MAPKAPK2 (human) (P49137 whole entry, looked up): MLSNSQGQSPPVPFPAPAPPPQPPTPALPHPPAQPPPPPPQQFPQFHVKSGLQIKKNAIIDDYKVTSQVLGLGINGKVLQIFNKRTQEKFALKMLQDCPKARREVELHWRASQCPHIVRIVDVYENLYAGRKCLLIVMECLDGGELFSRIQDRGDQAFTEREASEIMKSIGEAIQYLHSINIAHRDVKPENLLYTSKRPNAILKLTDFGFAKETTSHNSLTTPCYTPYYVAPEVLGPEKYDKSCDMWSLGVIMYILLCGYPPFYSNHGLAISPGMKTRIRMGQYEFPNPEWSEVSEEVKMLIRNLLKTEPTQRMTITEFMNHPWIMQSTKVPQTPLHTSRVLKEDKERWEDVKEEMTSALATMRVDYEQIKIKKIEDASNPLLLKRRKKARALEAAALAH
Chain of PIM1 (human) (P11309 whole entry, looked up): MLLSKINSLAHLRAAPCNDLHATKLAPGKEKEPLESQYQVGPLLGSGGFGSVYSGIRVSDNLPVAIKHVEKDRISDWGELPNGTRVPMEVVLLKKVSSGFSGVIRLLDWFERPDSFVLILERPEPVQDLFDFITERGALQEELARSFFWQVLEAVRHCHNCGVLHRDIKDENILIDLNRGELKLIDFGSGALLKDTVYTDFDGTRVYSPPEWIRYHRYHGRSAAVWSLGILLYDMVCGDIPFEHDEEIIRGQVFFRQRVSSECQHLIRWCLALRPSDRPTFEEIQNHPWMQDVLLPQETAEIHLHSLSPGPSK
Chain of NEK2 (human) (P51955 whole entry, looked up): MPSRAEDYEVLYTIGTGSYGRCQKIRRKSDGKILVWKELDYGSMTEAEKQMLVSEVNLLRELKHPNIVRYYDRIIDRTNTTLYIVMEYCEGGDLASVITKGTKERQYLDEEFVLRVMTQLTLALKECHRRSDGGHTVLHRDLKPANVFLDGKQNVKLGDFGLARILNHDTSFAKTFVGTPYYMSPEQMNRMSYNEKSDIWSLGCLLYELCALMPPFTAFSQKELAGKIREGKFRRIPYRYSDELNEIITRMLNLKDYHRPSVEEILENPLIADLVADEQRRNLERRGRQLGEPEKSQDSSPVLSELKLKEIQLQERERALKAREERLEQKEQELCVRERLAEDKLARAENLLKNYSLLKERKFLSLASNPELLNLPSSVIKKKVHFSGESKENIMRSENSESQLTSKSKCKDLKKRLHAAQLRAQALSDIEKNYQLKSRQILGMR

SMILES: CC(C)(N)c1ccc(-c2nc3ccccc3nc2-c2ccccc2)cc1
- residual activity [1]: 64%
- residual activity (AURKB (human); compound 1.0 µM): 82%
- residual activity (AURKB (human); compound 10.0 µM): 60%
- residual activity (BRSK2 (human)): 96%
- residual activity (CAMKK2 (human)): 108%
- residual activity (CHEK2 (human)): 83%
- residual activity (CSK (human)): 87%
- residual activity (CaMK1 (human); compound 1.0 µM): 43%
- residual activity (CaMK1 (human); compound 10.0 µM): 3%
- residual activity (DYRK2 (human); compound 1.0 µM): 113%
- residual activity (DYRK2 (human); compound 10.0 µM): 118%
- residual activity (DYRK3 (human); compound 1.0 µM): 86%
- residual activity (DYRK3 (human); compound 10.0 µM): 75%
- residual activity (EEF2K (human); compound 1.0 µM): 93%
- residual activity (EEF2K (human); compound 10.0 µM): 40%
- residual activity (GSK3B (human); compound 1.0 µM): 89%
- residual activity (HIPK2 (human); compound 1.0 µM): 102%
- residual activity (HIPK2 (human); compound 10.0 µM): 85%
- residual activity (HIPK3 (human); compound 1.0 µM): 77%
- residual activity (HIPK3 (human); compound 10.0 µM): 66%
- residual activity (IKBKB (human)): 90%
- residual activity (MAP2K1 (human)): 91%
- residual activity (MAPK10 (human); compound 1.0 µM): 88%
- residual activity (MAPK10 (human); compound 10.0 µM): 80%
- residual activity (MAPK15 (human)): 71%
- residual activity (MAPK3 (human); compound 1.0 µM): 93%
- residual activity (MAPK3 (human); compound 10.0 µM): 100%
- residual activity (MAPKAPK2 (human); compound 1.0 µM): 84%
- residual activity (MAPKAPK2 (human); compound 10.0 µM): 60%
- residual activity (NEK2 (human); compound 1.0 µM): 91%
- residual activity (NEK2 (human); compound 10.0 µM): 100%
- residual activity (PAK6 (human); compound 1.0 µM): 116%
- residual activity (PAK6 (human); compound 10.0 µM): 92%
- residual activity (PDPK1 (human); compound 1.0 µM, ATP 20 µM): 96%
- residual activity (PDPK1 (human); compound 1.0 µM, ATP 50 µM): 76%
- residual activity (PDPK1 (human); compound 10.0 µM, ATP 20 µM): 95%
- residual activity (PIM1 (human); compound 1.0 µM): 80%
- residual activity (PIM1 (human); compound 10.0 µM): 57%
- residual activity (PIM3 (human)): 60%
- residual activity (PLK1 (human); compound 1.0 µM): 79%
- residual activity (PLK1 (human); compound 10.0 µM): 90%
- residual activity ([2]; compound 1.0 µM): 91%
- residual activity ([2]; compound 10.0 µM): 77%
- residual activity (PRKCA (human); compound 1.0 µM): 108%
- residual activity (PRKCA (human); compound 10.0 µM): 87%
- residual activity (RPS6KA1 KD1 KD2 (human); compound 1.0 µM): 98%
- residual activity (RPS6KA1 KD1 KD2 (human); compound 10.0 µM): 67%
- residual activity [3]: 82%
- residual activity (SRC (chicken)): 118%
- residual activity (STK3 (human)): 78%

SMILES: N#CC(=C(\N)Sc1ccccc1N)/C(C#N)=C(/N)Sc1ccccc1N
- residual activity [1]: 76%
- residual activity (AKT2 (human)): 98%
- residual activity (AURKB (human); compound 10.0 µM): 86%
- residual activity (CAMKK2 (human)): 92%
- residual activity (CHEK2 (human)): 98%
- residual activity [4]: 99%
- residual activity (CaMK1 (human); compound 10.0 µM): 69%
- residual activity (DYRK2 (human); compound 10.0 µM): 84%
- residual activity (DYRK3 (human); compound 10.0 µM): 77%
- residual activity (EEF2K (human); compound 10.0 µM): 116%
- residual activity (GSK3B (human); compound 10.0 µM): 82%
- residual activity (HIPK2 (human); compound 10.0 µM): 97%
- residual activity (HIPK3 (human); compound 10.0 µM): 87%
- residual activity (IKBKB (human)): 118%
- residual activity (MAPK1 (human)): 68%
- residual activity (MAPK10 (human); compound 10.0 µM): 98%
- residual activity (MAPK12 (human)): 90%
- residual activity (MAPK14 (human)): 77%
- residual activity (MAPK15 (human)): 67%
- residual activity (MAPK3 (human); compound 10.0 µM): 72%
- residual activity (MAPK8 (human)): 90%
- residual activity (MAPKAPK2 (human); compound 10.0 µM): 95%
- residual activity (NEK2 (human); compound 10.0 µM): 89%
- residual activity (PDPK1 (human); compound 10.0 µM, ATP 20 µM): 77%
- residual activity (PDPK1 (human); compound 10.0 µM, ATP 50 µM): 77%
- residual activity (PIM1 (human); compound 10.0 µM): 87%
- residual activity (PIM3 (human)): 63%
- residual activity (PKN2 (human)): 85%
- residual activity (PLK1 (human); compound 10.0 µM): 92%
- residual activity ([2]; compound 10.0 µM): 93%
- residual activity (PRKCA (human); compound 10.0 µM): 95%
- residual activity (RPS6KA1 KD1 KD2 (human); compound 10.0 µM): 83%
- residual activity [3]: 72%
- residual activity (SRC (chicken)): 84%
- residual activity (STK3 (human)): 96%
